Like-named read-outs stand apart in the source and are kept apart here.
Tests used:
Format in all cases: in vivo
[1] = tested on: Eggs of Tetranychus Cinnabarinus; assay: Activity assay of eggs of Tetranychus cinnabarinus (spray method, ovicidal); details: Tetranychus cinnabarinus; for pest or weed control at 5 µg/mL: concentration 5 mg/L, non-incubated eggs counted as dead; for pest or weed control at 2 µg/mL: concentration 2 mg/L
Method in brief: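 Ovicidal spray test: compound dissolved in DMF, diluted with 1‰ Tween 80 (DMF ≤10%), sprayed on eggs laid during 24 h by females on broad bean leaves. Culture at 26±2° C, 70–80% RH, 16 h photoperiod; non-hatched eggs scored as dead when blank control hatched; three repeats.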

[2] = tested on: Tetranychus cinnabarinus Nymphs; assay: Activity assay of Tetranychus cinnabarinus nymphs (spray on broad bean leaves)
Method in brief: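 Mortality, judged as no response to gentle touch, was scored 48 h after spraying Tetranychus cinnabarinus nymphs on broad bean leaves (eggs from females removed after 24 h). Test solutions: DMF-dissolved compound, ≤10% DMF, in 1‰ Tween 80; 26±2° C., 70%–80% RH, 16 h light; triplicate, blank control.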

[3] = tested on: adult Tetranychus cinnabarinus; assay: Activity assay of adult Tetranychus cinnabarinus (whole-plant spray on bean seedlings); details: 48 h; for pest or weed control at 2.5 µg/mL: concentration 2.5 mg/L; for pest or weed control at 1.25 µg/mL: concentration 1.25 mg/L
Method in brief: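 Whole plants sprayed after adult mite inoculation and initial census, using compound dissolved in DMF and made up with 1‰ Tween 80 water (DMF not above 10%). Mortality derived from survivor counts at 48 h after treatment. Each treatment run in triplicate.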

[4] = spray, read-out: ovicidal activity
[5] = 48 h, concentration 2.5 mg/L, read-out: nymph-killing activity
[6] = read-out: adult mite-killing activity
[7] = concentration 2.5 mg/L, 48 h, read-out: nymph-killing activity
[8] = 48 h, concentration 2 mg/L, read-out: nymph-killing activity

SMILES | pest or weed control at 5 µg/mL [1, 4] [%] | pest or weed control at 2.5 µg/mL [2, 5] [%] | pest or weed control at 2.5 µg/mL [3, 6] [%] | other results
CCn1nc(C)c(Cl)c1/C(OCOC(=O)OC)=C(\C#N)c1ccc(C(C)(C)C)cc1 [Compound 739] | ≥ 90 | ≥ 95 | ≥ 90 | –
Cc1nn(C)c(/C(OCOC(=O)C2CC2)=C(\C#N)c2ccc(C(C)(C)C)cc2)c1C [Compound 159] | ≥ 90 | ≥ 95 | ≥ 90 | –
C=CC(=O)OC(C)O/C(=C(/C#N)c1ccc(C(C)(C)C)cc1)c1c(Cl)c(C)nn1C (stereo not drawn) [Compound 117] | ≥ 90 | ≥ 95 | ≥ 90 | –
CCSC(=O)OC(C)O/C(=C(/C#N)c1ccc(C(C)(C)C)cc1)c1cc(C)nn1CC (stereo not drawn) [Compound 608] | ≥ 90 | ≥ 95 | ≥ 90 | –
CCCC(=O)OCO/C(=C(/C#N)c1ccc(C(C)(C)C)cc1)c1c(Cl)c(C)nn1C [Compound 78] | ≥ 90 | ≥ 95 | ≥ 90 | –
CC(=O)OC(C)O/C(=C(/C#N)c1ccc(C(C)(C)C)cc1)c1c(Cl)c(C)nn1C (stereo not drawn) [Compound 101] | ≥ 90 | ≥ 95 | ≥ 90 | –
Cc1cc(/C(OCOC(=O)Cc2ccccc2)=C(\C#N)c2ccc(C(C)(C)C)cc2)n(C)n1 [Compound 15] | ≥ 90 | – | ≥ 90 | pest or weed control at 2.5 µg/mL [2, 7]: ≥ 95%
C=CC(=O)OCO/C(=C(/C#N)c1ccc(C(C)(C)C)cc1)c1cc(C)nn1C [Compound 17] | ≥ 90 | ≥ 95 | ≥ 90 | –
CC(=O)OCO/C(=C(/C#N)c1ccc(C(C)(C)C)cc1)c1cc(C)nn1C [Compound 1] | ≥ 90 | ≥ 95 | ≥ 90 | –
CCCCC(=O)OC(C)O/C(=C(/C#N)c1ccc(C(C)(C)C)cc1)c1c(C)c(C)nn1CC (stereo not drawn) [Compound 406] | ≥ 90 | ≥ 95 | ≥ 90 | –
CCn1nc(C)cc1/C(OCOC(=O)OCCCl)=C(\C#N)c1ccc(C(C)(C)C)cc1 [Compound 558] | ≥ 90 | ≥ 95 | ≥ 90 | –
Cc1cc(/C(OC(C)OC(=O)c2ccccc2)=C(\C#N)c2ccc(C(C)(C)C)cc2)n(C)n1 (stereo not drawn) [Compound 39] | ≥ 90 | ≥ 95 | ≥ 90 | –
CCC(=O)OCO/C(=C(/C#N)c1ccc(C(C)(C)C)cc1)c1c(Cl)c(C)nn1C [Compound 77] | ≥ 90 | ≥ 95 | ≥ 90 | –
CCCCCOC(=O)OC(C)O/C(=C(/C#N)c1ccc(C(C)(C)C)cc1)c1c(Cl)c(C)nn1CC (stereo not drawn) [Compound 780] | ≥ 90 | ≥ 95 | ≥ 90 | pest or weed control at 2 µg/mL [1, 4]: ≥ 90%; pest or weed control at 2 µg/mL [2, 8]: ≥ 90%; pest or weed control at 1.25 µg/mL [3, 6]: ≥ 90%
Cc1cc(/C(OC(C)OC(=O)C(C)(C)C)=C(\C#N)c2ccc(C(C)(C)C)cc2)n(C)n1 (stereo not drawn) [Compound 30] | ≥ 90 | ≥ 95 | ≥ 90 | –
CCn1nc(C)cc1/C(OCOC(=O)C(C)C)=C(\C#N)c1ccc(C(C)(C)C)cc1 [Compound 229] | ≥ 90 | ≥ 95 | ≥ 90 | –
CCCC(=O)OC(C)O/C(=C(/C#N)c1ccc(C(C)(C)C)cc1)c1cc(C)nn1CC (stereo not drawn) [Compound 253] | ≥ 90 | ≥ 95 | ≥ 90 | –

SMILES | pest or weed control at 5 µg/mL [1, 4] [%] | pest or weed control at 2.5 µg/mL [2, 5] [%] | pest or weed control at 2.5 µg/mL [3, 6] [%] | other results
CCC(=O)OCO/C(=C(/C#N)c1ccc(C(C)(C)C)cc1)c1c(Cl)c(C)nn1CC [Compound 302] | ≥ 90 | ≥ 95 | ≥ 90 | pest or weed control at 2 µg/mL [1, 4]: ≥ 90%; pest or weed control at 2 µg/mL ([1]; eggs, parallel determination, read-out: Death rate (%)): 97%; pest or weed control at 2 µg/mL [2, 8]: ≥ 90%; pest or weed control at 0.5 µg/mL ([2]; 48 h, nymphs, concentration 0.5 mg/L, parallel determination, read-out: Death rate (%)): 96%; pest or weed control at 1.25 µg/mL ([3]; adult mites, parallel determination, read-out: Death rate (%)): 96%; pest or weed control at 1.25 µg/mL [3, 6]: ≥ 90%
CCn1nc(C)cc1/C(OCOC(=O)c1ccccc1)=C(\C#N)c1ccc(C(C)(C)C)cc1 [Compound 239] | ≥ 90 | ≥ 95 | ≥ 90 | –
CCC(C)(C)C(=O)OC(C)O/C(=C(/C#N)c1ccc(C(C)(C)C)cc1)c1c(Cl)c(C)nn1C (stereo not drawn) [Compound 116] | ≥ 90 | ≥ 95 | ≥ 90 | –
CSCC(=O)OCO/C(=C(/C#N)c1ccc(C(C)(C)C)cc1)c1cc(C)nn1C [Compound 10] | ≥ 90 | ≥ 95 | ≥ 90 | –
CCn1nc(C)c(C)c1/C(OC(C)OC(=O)CC(C)C)=C(\C#N)c1ccc(C(C)(C)C)cc1 (stereo not drawn) [Compound 407] | ≥ 90 | ≥ 95 | ≥ 90 | –
Cc1nn(C)c(/C(OCOC(=O)Cc2ccccc2)=C(\C#N)c2ccc(C(C)(C)C)cc2)c1C [Compound 165] | ≥ 90 | – | ≥ 90 | pest or weed control at 2.5 µg/mL [2, 7]: ≥ 95%
CCn1nc(C)c(C)c1/C(OC(C)OC(=O)C(C)(C)CC)=C(\C#N)c1ccc(C(C)(C)C)cc1 (stereo not drawn) [Compound 416] | ≥ 90 | ≥ 95 | ≥ 90 | –
COC(=O)CSC(=O)OCO/C(=C(/C#N)c1ccc(C(C)(C)C)cc1)c1cc(C)nn1C [Compound 481] | ≥ 90 | ≥ 95 | ≥ 90 | –
CCn1nc(C)cc1/C(OC(C)OC(=O)OCCC(C)C)=C(\C#N)c1ccc(C(C)(C)C)cc1 (stereo not drawn) [Compound 586] | ≥ 90 | ≥ 95 | ≥ 90 | –
Cc1cc(/C(OC(C)OC(=O)C2CC2)=C(\C#N)c2ccc(C(C)(C)C)cc2)n(C)n1 (stereo not drawn) [Compound 34] | ≥ 90 | ≥ 95 | ≥ 90 | –
CCCCC(=O)OCO/C(=C(/C#N)c1ccc(C(C)(C)C)cc1)c1c(C)c(C)nn1CC [Compound 381] | ≥ 90 | ≥ 95 | ≥ 90 | –
CCCCOC(=O)OCO/C(=C(/C#N)c1ccc(C(C)(C)C)cc1)c1cc(C)nn1C [Compound 456] | ≥ 90 | ≥ 95 | ≥ 90 | –
CCn1nc(C)c(C)c1/C(OC(C)OC(=O)C(C)C)=C(\C#N)c1ccc(C(C)(C)C)cc1 (stereo not drawn) [Compound 404] | ≥ 90 | ≥ 95 | ≥ 90 | –
Cc1nn(C)c(/C(OC(C)OC(=O)C2CCCCC2)=C(\C#N)c2ccc(C(C)(C)C)cc2)c1C (stereo not drawn) [Compound 186] | ≥ 90 | ≥ 95 | ≥ 90 | –
CSCC(=O)OCO/C(=C(/C#N)c1ccc(C(C)(C)C)cc1)c1c(Cl)c(C)nn1C [Compound 85] | ≥ 90 | ≥ 95 | ≥ 90 | –
C#CCOC(=O)OC(C)O/C(=C(/C#N)c1ccc(C(C)(C)C)cc1)c1cc(C)nn1C (stereo not drawn) [Compound 508] | ≥ 90 | ≥ 95 | ≥ 90 | –
CCC(=O)OCO/C(=C(/C#N)c1ccc(C(C)(C)C)cc1)c1cc(C)nn1C [Compound 2] | ≥ 90 | ≥ 95 | ≥ 90 | –

Source: US11104648B2, “Pyrazole derivative” (Zhejiang Research Institute of Chemical Industry Co., Ltd., priority 2018, dated 2021)
